Experimental data from ChEMBL document CHEMBL1201862, “PubChem BioAssay data set” (2004).
Several values for one entry are separate records, joined by “and”; a condition that tells them apart may be missing. Equal entries are not always repeated. Activity calls are given as the source filed them.

Legend:
[1] = target: Metabotropic glutamate receptor 5 (Rattus norvegicus, UniProt P31424); assay: Identification of a glycine sulfonamide based non-MPEP site positive allosteric potentiator (PAM) of mGlu5 (calcium_assay).; type: functional
[2] = target: COUP transcription factor 2 (Homo sapiens, UniProt P24468); assay: Luminescence-based cell-based high throughput dose response assay to identify inhibitors of COUP-TFII (NR2F2).; type: functional;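 also: HEK293 cells transiently cotransfected with COUP-TFII expression vector and reporter; luciferase reporter luminescence driven by COUP-TFII from the pX2-168 reporter plasmid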
[3] = target: T1, Heat shock factor protein 1 (Mus musculus, UniProt P38532); assay: inhibition of MG132-induced HSE-luciferase signal, confirmation, cell-based, NIH3T3, luminescence, dose retest (AID 2382); type: functional;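 also: NIH3T3 fibroblasts with HSF1-driven luciferase reporter stressed by proteasome inhibitor MG132; luminescence from HSF1-driven luciferase expression after 8 hours of MG132 stress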
T1 sequence (P38532 whole entry): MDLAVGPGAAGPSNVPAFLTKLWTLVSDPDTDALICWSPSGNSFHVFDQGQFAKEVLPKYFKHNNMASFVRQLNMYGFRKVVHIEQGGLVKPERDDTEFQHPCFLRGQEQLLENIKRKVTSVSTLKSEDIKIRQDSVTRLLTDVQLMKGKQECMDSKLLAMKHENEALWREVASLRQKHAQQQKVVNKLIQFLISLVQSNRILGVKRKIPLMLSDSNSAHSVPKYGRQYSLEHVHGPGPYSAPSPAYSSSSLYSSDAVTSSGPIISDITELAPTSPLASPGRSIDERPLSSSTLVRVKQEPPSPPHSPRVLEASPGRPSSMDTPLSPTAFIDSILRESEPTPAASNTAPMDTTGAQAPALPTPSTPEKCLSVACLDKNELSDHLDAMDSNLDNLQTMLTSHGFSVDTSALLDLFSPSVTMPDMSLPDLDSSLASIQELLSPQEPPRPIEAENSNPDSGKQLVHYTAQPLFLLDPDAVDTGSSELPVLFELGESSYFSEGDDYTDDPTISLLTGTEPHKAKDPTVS

[4] = target: Neurotensin receptor type 1 (Homo sapiens, UniProt P30989); type: functional;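 also: Image-based confirmatory dose-response assay measuring agonist activity at NTR1; NTR1-expressing U2OS osteosarcoma cells imaged for beta-arrestin GFP spot formation; agonist potency where compounds increase beta-arrestin recruitment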
[5] = Dose-response inhibition of insulin secretion in a rat insulinoma line at 5 mM glucose (AID 1117331); type: functional, cell-based; details: INS-1E
Cytochrome P450 2C9 = Cytochrome P450 2C9 (Homo sapiens, UniProt P11712)
[6] = P. falciparum Dd2 growth inhibitors, dose response, SYBR Green, dry powder samples, set 9 (AID 1159568); type: functional, cell-based
[7] = P. falciparum 3D7-ScDHODH growth inhibitors, dose response, SYBR Green, dry powder samples (AID 1159570); type: functional, cell-based;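 also: parasite growth measured after 72 hours of compound exposure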
[8] = HepG2 cell cytotoxicity, dose response, cytotoxicity control, plate reader, dry powder samples (AID 1159569); type: functional, cell-based;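 also: inhibitor potency with signal falling toward the positive control level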
[9] = P. falciparum Dd2 growth inhibitors, dose response, SYBR Green, dry powder samples (AID 1159566); type: functional, cell-based;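 also: potency for growth inhibition with lower SYBR green DNA signal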
[10] = P. falciparum Dd2 growth inhibitors, dose response, SYBR Green, cherry-picked samples (AID 1159567); type: functional, cell-based
[11] = P. falciparum ATP4 D1247Y mutant growth inhibitors, dose response, NITD609-resistant line, SYBR Green, dry powder (AID 1159571); type: functional, cell-based;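 also: parasites synchronized at ring stage by sorbitol before testing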
[12] = target: RNA-editing ligase 1, mitochondrial (Trypanosoma brucei brucei, UniProt P86926); assay: TbREL1 ligase inhibitors, dose response, biochemical, fluorescence, Trypanosoma brucei (AID 1117295); type: functional
[13] = CEM21 lymphoblast cell cytotoxicity, dose response, cytotoxicity control for viral fusion inhibitor project, CellTiter-Glo luminescence, cherry-picked (AID 652042); type: functional, cell-based;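 also: potency for signal decrease meaning cytotoxicity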
[14] = inhibitors of HIV Env-driven cell fusion, dose response, cherry-pick (AID 652057); type: functional, cell-based
HEK293 [15] = assay: cells; details: Homo sapiens
[16] = inhibitors of clade B AD8 Env fusion, dose response, cell-based, cherry-pick (AID 652062); type: functional;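 also: luciferase signal from cell-cell fusion driven by HIV-1 clade B AD8 Env; potency is for inhibitors of fusion seen as a drop in luminescence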
HEK293 [17] = assay: cells; details: Homo sapiens; remark: listed apart in the source
[18] = off-target signal loss in HeLa-CEM21 co-culture – HeLa F-luc CTL cells, cherry-picked, counter-screen for HIV-1 Env fusion inhibitor project, dose response (AID 652040); type: functional, cell-based;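 also: potency for signal decrease marking cytotoxic or nonspecific inhibition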
[19] = microbe, parasite or virus in culture; type: functional; details: Mycobacterium tuberculosis
[20] = ZM109 Env clade C HIV-1 fusion inhibitors, dose response, HeLa effector, CEM target cells, luciferase, cherry-pick (AID 652058); type: functional, cell-based
[21] = Luminescence-based dose response cell-based high throughput screening assay for cytotoxic compounds using the IEC-6 intestinal epithelial cell line. [Related pubchem assays: 1858 (Summary AID.), 1825 (Counterscreen.), 1907 (Confirmation screen.)]; type: functional
[22] = CEM21 cell cytotoxicity, dose response, cytotoxicity control, plate reader, dry powder (AID 687026); type: functional, cell-based
[23] = HIV Env cell-cell fusion inhibitors, dose response, HIV entry, plate reader, dry powder (AID 687023); type: functional, cell-based
[24] = target: 1-phosphatidylinositol 4,5-bisphosphate phosphodiesterase beta-3 (Homo sapiens, UniProt Q01970); assay: Fluorescence-based biochemical high throughput dose response assay to identify inhibitors of phospholipase C isozymes (PLC-B3).
[25] = target: T2, Histone-lysine N-methyltransferase NSD2 (Homo sapiens, UniProt O96028); type: biochemical
T2 sequence (O96028 whole entry): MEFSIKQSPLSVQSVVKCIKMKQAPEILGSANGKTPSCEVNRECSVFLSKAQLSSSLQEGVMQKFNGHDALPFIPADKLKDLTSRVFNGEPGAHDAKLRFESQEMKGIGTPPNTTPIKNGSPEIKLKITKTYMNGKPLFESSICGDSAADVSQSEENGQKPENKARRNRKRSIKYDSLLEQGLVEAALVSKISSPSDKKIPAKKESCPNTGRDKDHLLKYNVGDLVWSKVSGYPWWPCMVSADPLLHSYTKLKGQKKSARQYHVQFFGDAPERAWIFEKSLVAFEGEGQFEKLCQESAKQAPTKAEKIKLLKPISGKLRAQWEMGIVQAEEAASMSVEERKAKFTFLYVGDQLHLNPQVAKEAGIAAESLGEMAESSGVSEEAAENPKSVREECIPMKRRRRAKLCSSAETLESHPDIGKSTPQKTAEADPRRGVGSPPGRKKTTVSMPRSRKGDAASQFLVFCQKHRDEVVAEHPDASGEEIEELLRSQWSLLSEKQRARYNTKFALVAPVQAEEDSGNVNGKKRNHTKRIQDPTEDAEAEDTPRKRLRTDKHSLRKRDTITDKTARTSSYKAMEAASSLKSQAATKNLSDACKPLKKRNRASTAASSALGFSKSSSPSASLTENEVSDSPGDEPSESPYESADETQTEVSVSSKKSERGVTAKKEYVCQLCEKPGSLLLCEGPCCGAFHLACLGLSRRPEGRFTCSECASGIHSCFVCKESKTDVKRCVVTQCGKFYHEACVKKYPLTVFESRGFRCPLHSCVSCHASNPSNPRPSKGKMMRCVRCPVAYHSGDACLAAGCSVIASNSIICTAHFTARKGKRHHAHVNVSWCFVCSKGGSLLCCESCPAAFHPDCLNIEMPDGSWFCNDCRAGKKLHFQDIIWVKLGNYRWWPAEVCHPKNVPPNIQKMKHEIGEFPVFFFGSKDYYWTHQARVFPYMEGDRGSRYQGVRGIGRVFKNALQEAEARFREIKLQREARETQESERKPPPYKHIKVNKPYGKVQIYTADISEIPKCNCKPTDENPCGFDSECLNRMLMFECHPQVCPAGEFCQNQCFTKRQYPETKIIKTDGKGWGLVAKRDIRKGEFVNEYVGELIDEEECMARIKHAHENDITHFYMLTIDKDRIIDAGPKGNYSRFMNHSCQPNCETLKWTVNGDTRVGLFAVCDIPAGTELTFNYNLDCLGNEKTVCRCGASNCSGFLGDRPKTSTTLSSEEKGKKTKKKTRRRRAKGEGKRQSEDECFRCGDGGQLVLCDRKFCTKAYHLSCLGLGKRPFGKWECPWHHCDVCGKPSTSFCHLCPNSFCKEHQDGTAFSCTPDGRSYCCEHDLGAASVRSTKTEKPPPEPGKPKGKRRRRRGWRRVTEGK

[26] = target: 1-phosphatidylinositol 4,5-bisphosphate phosphodiesterase gamma-1 (Homo sapiens, UniProt P19174); assay: Counterscreen for inhibitors of phospholipase C isozymes (PLC-B3): Fluorescence-based biochemical high throughput dose response assay to identify inhibitors of phospholipase C isozymes (PLC-gamma1).
Chain of 1-phosphatidylinositol 4,5-bisphosphate phosphodiesterase gamma-1 (P19174 whole entry): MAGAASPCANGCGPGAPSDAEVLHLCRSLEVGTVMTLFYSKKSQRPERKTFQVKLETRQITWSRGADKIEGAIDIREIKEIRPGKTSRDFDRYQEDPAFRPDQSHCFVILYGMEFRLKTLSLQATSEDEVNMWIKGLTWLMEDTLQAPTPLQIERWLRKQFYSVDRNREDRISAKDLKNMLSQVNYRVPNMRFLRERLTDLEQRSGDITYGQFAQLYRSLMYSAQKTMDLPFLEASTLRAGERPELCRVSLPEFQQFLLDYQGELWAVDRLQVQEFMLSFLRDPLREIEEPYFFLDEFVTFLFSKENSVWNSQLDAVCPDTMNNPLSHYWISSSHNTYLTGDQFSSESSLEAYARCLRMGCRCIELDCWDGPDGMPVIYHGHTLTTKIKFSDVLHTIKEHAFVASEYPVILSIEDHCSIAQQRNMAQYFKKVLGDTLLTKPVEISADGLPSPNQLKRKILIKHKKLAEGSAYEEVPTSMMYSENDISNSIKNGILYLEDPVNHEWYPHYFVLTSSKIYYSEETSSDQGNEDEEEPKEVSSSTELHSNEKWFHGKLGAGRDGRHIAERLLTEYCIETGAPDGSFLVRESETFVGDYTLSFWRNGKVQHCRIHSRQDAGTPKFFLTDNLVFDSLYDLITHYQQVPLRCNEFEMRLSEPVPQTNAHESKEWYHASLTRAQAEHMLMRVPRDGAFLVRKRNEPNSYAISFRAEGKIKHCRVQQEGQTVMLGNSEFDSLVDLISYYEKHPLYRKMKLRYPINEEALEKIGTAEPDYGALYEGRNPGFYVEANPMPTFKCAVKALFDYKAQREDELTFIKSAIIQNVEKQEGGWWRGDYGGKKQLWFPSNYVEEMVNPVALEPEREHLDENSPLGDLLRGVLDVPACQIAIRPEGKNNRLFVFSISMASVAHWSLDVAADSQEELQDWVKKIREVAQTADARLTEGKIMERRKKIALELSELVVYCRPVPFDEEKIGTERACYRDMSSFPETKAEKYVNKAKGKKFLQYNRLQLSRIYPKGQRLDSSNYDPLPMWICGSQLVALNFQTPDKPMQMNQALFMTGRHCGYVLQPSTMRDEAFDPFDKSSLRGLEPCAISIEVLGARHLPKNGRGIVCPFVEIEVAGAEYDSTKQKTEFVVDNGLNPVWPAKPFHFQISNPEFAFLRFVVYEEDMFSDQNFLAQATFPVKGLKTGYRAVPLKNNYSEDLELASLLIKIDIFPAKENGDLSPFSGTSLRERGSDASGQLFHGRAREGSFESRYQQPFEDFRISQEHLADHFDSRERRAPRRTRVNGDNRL

Chain of Cytochrome P450 2C9 (P11712 whole entry): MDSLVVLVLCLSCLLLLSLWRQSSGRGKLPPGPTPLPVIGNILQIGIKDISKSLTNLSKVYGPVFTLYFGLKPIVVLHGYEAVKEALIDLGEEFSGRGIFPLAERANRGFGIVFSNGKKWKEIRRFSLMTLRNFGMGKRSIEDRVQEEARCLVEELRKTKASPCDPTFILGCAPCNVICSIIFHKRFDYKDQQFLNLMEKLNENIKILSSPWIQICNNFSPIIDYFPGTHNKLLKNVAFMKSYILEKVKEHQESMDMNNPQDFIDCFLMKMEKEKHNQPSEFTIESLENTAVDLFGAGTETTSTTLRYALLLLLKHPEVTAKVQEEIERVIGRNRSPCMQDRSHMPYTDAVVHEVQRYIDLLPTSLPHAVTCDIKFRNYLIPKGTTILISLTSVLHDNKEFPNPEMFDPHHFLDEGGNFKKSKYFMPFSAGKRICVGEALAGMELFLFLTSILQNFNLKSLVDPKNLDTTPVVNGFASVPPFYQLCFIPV
Chain of Neurotensin receptor type 1 (P30989 whole entry): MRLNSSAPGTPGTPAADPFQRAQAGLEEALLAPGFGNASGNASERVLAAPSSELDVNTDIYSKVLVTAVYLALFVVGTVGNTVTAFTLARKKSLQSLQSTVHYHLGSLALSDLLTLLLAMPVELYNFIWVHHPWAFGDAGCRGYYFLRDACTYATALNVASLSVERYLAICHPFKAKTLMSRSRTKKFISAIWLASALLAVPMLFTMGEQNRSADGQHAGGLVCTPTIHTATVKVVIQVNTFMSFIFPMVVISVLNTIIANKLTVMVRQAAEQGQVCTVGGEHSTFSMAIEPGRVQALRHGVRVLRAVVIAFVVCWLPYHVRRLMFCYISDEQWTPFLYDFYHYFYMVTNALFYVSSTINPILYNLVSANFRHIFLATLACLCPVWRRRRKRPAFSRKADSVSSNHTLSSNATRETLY
Chain of COUP transcription factor 2 (P24468 whole entry): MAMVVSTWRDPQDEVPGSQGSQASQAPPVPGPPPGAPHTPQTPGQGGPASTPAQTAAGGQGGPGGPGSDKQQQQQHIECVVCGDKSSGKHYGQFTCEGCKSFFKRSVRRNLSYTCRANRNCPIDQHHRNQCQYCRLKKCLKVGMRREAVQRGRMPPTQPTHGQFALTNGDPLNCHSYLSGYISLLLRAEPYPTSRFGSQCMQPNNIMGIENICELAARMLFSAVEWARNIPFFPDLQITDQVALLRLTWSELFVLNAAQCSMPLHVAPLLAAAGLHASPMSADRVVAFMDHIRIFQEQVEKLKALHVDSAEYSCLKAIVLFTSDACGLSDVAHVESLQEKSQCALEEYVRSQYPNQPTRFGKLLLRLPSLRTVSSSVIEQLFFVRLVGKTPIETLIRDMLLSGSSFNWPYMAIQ
Chain of RNA-editing ligase 1, mitochondrial (P86926 whole entry, the tested form may be a part): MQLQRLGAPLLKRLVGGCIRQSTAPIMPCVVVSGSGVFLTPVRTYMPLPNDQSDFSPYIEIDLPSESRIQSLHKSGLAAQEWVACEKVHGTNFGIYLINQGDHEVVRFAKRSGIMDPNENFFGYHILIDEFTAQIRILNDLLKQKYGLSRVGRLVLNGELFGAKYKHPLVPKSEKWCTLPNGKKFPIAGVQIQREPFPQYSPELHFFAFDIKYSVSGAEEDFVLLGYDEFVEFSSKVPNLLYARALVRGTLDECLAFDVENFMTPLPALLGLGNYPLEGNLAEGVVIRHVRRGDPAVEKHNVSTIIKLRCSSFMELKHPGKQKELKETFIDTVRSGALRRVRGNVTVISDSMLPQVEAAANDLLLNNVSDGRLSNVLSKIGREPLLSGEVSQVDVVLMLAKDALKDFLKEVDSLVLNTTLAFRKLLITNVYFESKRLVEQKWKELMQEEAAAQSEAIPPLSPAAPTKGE
Chain of Metabotropic glutamate receptor 5 (P31424 whole entry): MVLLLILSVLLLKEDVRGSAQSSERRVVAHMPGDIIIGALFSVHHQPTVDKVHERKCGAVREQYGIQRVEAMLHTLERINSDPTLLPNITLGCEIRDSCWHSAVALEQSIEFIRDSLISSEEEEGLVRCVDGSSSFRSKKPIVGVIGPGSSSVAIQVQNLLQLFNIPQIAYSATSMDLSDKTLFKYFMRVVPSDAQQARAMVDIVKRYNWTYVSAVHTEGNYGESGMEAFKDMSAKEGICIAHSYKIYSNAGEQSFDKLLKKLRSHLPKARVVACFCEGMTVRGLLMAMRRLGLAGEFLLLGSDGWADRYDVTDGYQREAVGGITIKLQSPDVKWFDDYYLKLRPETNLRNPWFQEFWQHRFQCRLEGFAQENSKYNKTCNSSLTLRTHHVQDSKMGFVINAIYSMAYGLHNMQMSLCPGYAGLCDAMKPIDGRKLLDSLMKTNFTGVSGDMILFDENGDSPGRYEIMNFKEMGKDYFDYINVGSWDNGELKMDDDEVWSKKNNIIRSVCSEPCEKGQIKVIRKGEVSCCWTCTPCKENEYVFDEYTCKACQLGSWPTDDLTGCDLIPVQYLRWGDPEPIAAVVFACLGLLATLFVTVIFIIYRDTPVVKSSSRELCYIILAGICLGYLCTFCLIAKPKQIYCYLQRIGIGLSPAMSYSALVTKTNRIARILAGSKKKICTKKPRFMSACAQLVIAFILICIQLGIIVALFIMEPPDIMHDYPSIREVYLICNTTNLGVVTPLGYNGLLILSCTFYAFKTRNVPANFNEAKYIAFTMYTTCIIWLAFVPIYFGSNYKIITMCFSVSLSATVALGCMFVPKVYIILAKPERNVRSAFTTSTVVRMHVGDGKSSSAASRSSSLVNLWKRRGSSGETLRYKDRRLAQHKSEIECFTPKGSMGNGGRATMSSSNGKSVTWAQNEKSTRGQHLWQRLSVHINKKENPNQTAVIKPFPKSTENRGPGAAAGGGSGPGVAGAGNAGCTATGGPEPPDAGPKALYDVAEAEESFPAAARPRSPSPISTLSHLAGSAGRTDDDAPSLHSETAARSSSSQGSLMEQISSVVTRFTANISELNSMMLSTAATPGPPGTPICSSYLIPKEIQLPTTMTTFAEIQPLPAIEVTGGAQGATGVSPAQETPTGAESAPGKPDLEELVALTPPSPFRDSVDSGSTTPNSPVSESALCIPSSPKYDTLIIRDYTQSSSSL

Compound: CC(C)N(CC(=O)Nc1ccccc1)S(C)(=O)=O
- EC50 [1]: 10 µM (inconclusive)

Compound: CCOC(=O)c1c(C)[nH]c(C(=O)OCC(=O)Nc2sccc2C(N)=O)c1C
- IC50 [2]: 8.54 µM (active)
- EC50 [3]: > 195 µM (not active)
- EC50 [4]: 3.35 µM (active)

Compound: COc1ccccc1N1CCN(CCCCNC(=O)c2ccc(-c3ccc(C(C)=O)cc3)cc2)CC1
- IC50 [5]: > 33.3 µM (inactive)
- AC50 (Cytochrome P450 2C9): inconclusive

Compound: CCCNC(=O)N1[C@H](C#N)[C@H](c2ccc(-c3ccccc3F)cc2)[C@@H]1CO
- AC50 [6]: 0.608 µM (active)
- AC50 [7]: 6.61 µM (active)
- AC50 [8]: 1.6 µM (active)
- AC50 [9]: 0.377 µM (active)
- AC50 [10]: 0.522 µM (active)
- AC50 [11]: 0.511 µM (active)

Compound: CC(C)Cc1ccc(C(C)C(=N)NCCc2ccccc2)cc1 (configuration not stated)
- IC50 [12]: > 96.6 µM (inactive)
- AC50 [13]: 14.3 µM (active)
- AC50 [14]: 2.78 µM (active)
- EC50 (HEK293 [15]): > 59.7 µM (inactive)
- AC50 [16]: 21.6 µM (active)
- EC50 (HEK293 [17]): > 59.7 µM (inactive)
- AC50 [18]: 7.77 µM (active)
- CC50 [19]: 12.1 µM (active)
- AC50 [20]: 4.62 µM (active)
- IC50 [21]: 3.3 µM (active)

Compound: CCCOc1ccc(S(=O)(=O)NCc2cccnc2)cc1
- AC50 [22]: > 70 µM (inactive)
- AC50 [23]: 13.1 µM (active) and 17.6 µM (active)

Compound: O=C(CCCN1C(=O)/C(=C/c2ccco2)SC1=S)Nc1cccc(C(=O)O)c1
- IC50 [24]: > 122 µM (inactive)
- AC50 [25]: > 20 µM (inactive)
- IC50 [26]: > 122 µM (inactive)
